Where two headings read alike, the source gives them in different places.
Columns and labels:
[1] = biological target: T1, human cloned 5-HT1A receptors (Homo sapiens, UniProt P08908); experiment: 5-HT1A receptor binding assay ([3H]8-OH-DPAT)
T1 construct: purchased NEN (manufactured by Biosignal, Inc., Montreal, Canada); host or cells: CHO cells (membranes)
T1 sequence (P08908 1-422): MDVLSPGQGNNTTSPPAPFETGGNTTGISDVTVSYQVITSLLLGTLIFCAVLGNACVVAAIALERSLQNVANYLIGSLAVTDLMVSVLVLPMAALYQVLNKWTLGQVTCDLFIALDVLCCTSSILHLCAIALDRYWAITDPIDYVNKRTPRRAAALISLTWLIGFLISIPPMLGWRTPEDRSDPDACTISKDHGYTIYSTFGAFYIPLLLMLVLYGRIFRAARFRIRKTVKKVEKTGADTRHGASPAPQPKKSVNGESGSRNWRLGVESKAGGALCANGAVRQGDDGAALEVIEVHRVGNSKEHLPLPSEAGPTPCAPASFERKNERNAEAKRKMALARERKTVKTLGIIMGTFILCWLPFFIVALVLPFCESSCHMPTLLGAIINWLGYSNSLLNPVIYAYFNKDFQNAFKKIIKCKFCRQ
Procedure: 5-HT1A Receptor Binding Assay
5-HT1A binding studies were performed with human cloned receptors expressed in Chinese hamster ovary (CHO) cells using (^3H)8-OH DPAT as the ligand. Membranes from Chinese hamster ovary cells (CHO) expressing cloned 5-HT1A receptors (manufactured for NEN by Biosignal, Inc., Montreal, Canada) were homogenized in approximately 40 volumes of 50 mM Tris pH 7.4 for 5 sec. Drug dilutions were made using a Beckman Biomek 2000 robot (Beckman Instruments, Fullerton, Calif.). Incubations were conducted with membrane prep, test compounds, and 0.25 nM [^3H]8-OH-DPAT (NEN, Boston, Mass.) in the same buffer at 27° C. for 1 h. Assays were terminated by rapid vacuum filtration over Whatman GF/B glass fiber filters pre-soaked in 0.3% polyethyleneimine. Bound radioactivity was measured using liquid scintillation spectrometry. Data were analyzed using non-linear curve fitting programs (Sharif et al., J. Pharmac. Pharmacol. 51: 685-694, 1999).
Ligand binding studies can also be run using membrane preparations from calf and rat brain (local source) and human cortex membranes. Specific brain regions were dissected out, homogenized in 10 volumes of 0.32 M sucrose and centrifuged for 10 min at 700×g. The resulting supernatant was centrifuged at 43,500×g for 10 min and the pellet re-suspended in 50 mM Tris-HCl (pH 7.7, 25° C.) using a 10 sec polytron treatment. Aliquots were stored at −140° C. To remove endogenous serotonin, the preps were incubated at 37° C. for 10 min prior to the experiment. Assay incubations were terminated by rapid filtration over Whatman GF/C filters using a Brandel cell harvester. Ki values were calculated using the Cheng-Prusoff equation (De Vry et al., J. Pharm. Exper. Ther. 284:1082-1094, 1998.)

5-HT1A receptor = biological target: T2, 5-HT1A receptor (UniProt P08908); experiment: 5-HT1A functional assays (inhibition of forskolin-stimulated adenylate cyclase / cAMP); type: biochemical; conditions: for EC50: read-out: EC50, nM (SEM) 5-HT1A functional
T2 sequence (P08908 1-422): T1 sequence (P08908 1-422)
Procedure: The function of Compounds of the present invention can be determined using a variety of methods to assess the functional activity of 5-HT1A agonists. One such assay is performed using hippocampal slices from male Sprague-Dawley rats, measuring the inhibition of forskolin-stimated adenylate cyclase [J. Med. Chem. 42. 36 (1999), J. Neurochem. 56, 1114 (1991), J. Pharm. Exper. Ther. 284:1082 (1998). Rat hippocampal membranes were homogenized in 25 volumes of 0.3 M sucrose containing 1 mM EGTA, 5 mM EDTA, 5 mM dithiothreitol, and 20 mM Tris-HCl, pH 7.4 at 25° C. The homogenate was centrifuged for 10 m in at 1,000×g. The supernatant subsequently was centrifuged at 39,000×g for 10 min. The resulting pellet was re-suspended in homogenization buffer at a protein concentration of approximately 1 mg/ml and aliquots were stored at −140° C. Prior to use, the membranes were rehomogenized in a Potter-Elvehjem homogenizer. Fifty μl of the membrane suspension (50 μg protein) were added to an incubation buffer containing 100 mM NaCl, 2 mM magnesium acetate, 0.2 mM ATP, 1 mM cAMP, 0.01 mM GTP, 0.01 mM forskolin, 80 mM Tris-HCl, 5 mM creatine phosphate, 0.8 U/μl creatine phosphokinase, 0.1 mM IBMX, 1-2 μCi α-[^32P]ATP. Incubations with test compounds (10 min at 30° C.) were initiated by the addition of the membrane solution to the incubation mixture (prewarmed 5 min at 30° C.). [^32P]cAMP was measured according to the method of Salomon (Adv. Cyclic Nucleotide Res. 10:35-55, 1979). Protein was measure using the Bradford (Anal. Biochem 72:248-254, 1976) assay.
Functional activity can also be determined in recombinant human receptors according to the method of Schoeffter et al., (Neuropharm. 36:429-437, 1997). HeLa cells transfected with recombinant human 5-HT1A receptors were grown to confluence in 24-well plates. The cells were rinsed with 1 ml of Hepes-buffered saline (in mM) NaCl 130, KCl 5.4, CaCl2, 1.8, MgSO4 0.8, NaH2PO4 0.9, glucose 25, Hepes 20, pH 7.4, and phenol red 5 mg/l. The cells were labelled with 6 μCi/ml of [^3H] adenine (23 Ci/mmol, Amersham, Rahn AG, Zurich, Switzerland) in 0.5 ml of saline at 37° C. for 2 hr. The plates were subsequently rinsed twice with 1 ml of buffered saline containing 1 mM isobutylmethylxanthine. The cells were incubated for 15 min in 1 ml of this solution (37° C.) in the presence or absence of 10 μM forskolin and the test compound. The buffer was then removed and 1 ml of 5% trichloroacetic acid (TCA) containing 0.1 mM cAMP and 0.1 mM ATP was added to extract the samples. After 30 min at 4° C., the TCA extracts were subjected to chromatographic separation on Dowex AG 50W-X4 and alumina columns (Salomon, Methods in Enzymology 195: 22-28, 1991). Cyclic AMP production was calculated as the ratio [^3H]cAMP/([^3H]cAMP+[^3H]ATP).

SMILES | IC50 ([1]; [3H]8-OH-DPAT, CHO cell membranes, read-out: IC50, nM (SEM) 5-HT1A receptor binding) [nM] | Efficacy (Emax, %) 5-HT1A functional (5-HT1A receptor) [%] | EC50 (5-HT1A receptor) [nM] | IC50 [1] [nM]
CC(N)Cn1ccc2ccc(O)cc21.O=C(O)/C=C/C(=O)O (stereo not drawn) [1-(2-aminopropyl) 6-hydroxyindole fumarate] | 111 | 89 | 780 | 
CC(N)Cc1c[nH]c2ccc(O)cc12.O=C(O)/C=C\C(=O)O (stereo not drawn) [α-Methyl 5-hydroxytryptamine maleate, 3-(2-aminopropyl)-1H-indol-5-ol] |  | 100 | 378 | 22.5
COc1ccc2[nH]cc(CC(C)N)c2c1.O=C(O)/C=C/C(=O)O (stereo not drawn) [α-Methyl 5-methoxytryptamine fumarate] |  | 92 | 570 | 26.5

— patent US20030114512A1, “Compounds with 5-ht2 and 5-ht1a agonist activity for treating glaucoma” (priority 2002, published 2003)
